Broadly, the pIC50 is the negative decadic logarithm of the IC50, by convention in mol/L. The half-life is the time needed for the level to fall by half in the phase considered. As usually defined, the IC50 is the concentration at which inhibition is half-maximal. As a reminder, the Cmax is the highest concentration seen after dosing. What is called AUC(0-t) is exposure summed from dosing to a finite time, without extrapolation to infinity. For orientation: Tmax means the time from dosing to the highest level. By CL/F is commonly meant the apparent clearance, not corrected for the fraction that reaches the circulation. One may read the bioavailability as the share of a dose that reaches the circulation, judged against a reference dose that is usually intravenous. The low end stands for poor availability, the high end for good availability.

The values that follow come from patent US11236052B2, “Aminobenzimidazole derivatives, treatments, and methods of inhibiting histone deacetylase” (TRANSLATIONAL DRUG DEVELOPMENT, LLC, priority 2017, dated 2022).

The test system of one series is MM1.S cells. The series can be described thus: CellTiter-Glo cell viability assay, MM1.S cells. It counts as cell-based, human. The conditions noted are these: Homo sapiens; MM1.S cells, 72 hours treatment; read-out: IC50 in MM1.S. As to the method:
Cell viability in the presence of varying concentrations of the above listed compounds at different time points was used to assess cytotoxicity and the effect of the compounds on cell proliferation.
Cell Viability Assay—Cell viability was measured by the CellTiter-GlO® cell viability assay from Promega (Madison, Wis.). The CellTiter-GlO® Luminescent Cell Viability Assay is a homogeneous method to determine the number of viable cells in culture based on quantitation of the ATP present, which signals the presence of metabolically active cells. Following treatment, CellTiter-GlO® is added to treatment wells and incubated at 37° C. luminescence values were measured at using a Molecular Devices Spectramax microplate reader
(§1) Single Agent Studies—Cells were grown to 70% confluency, trypsinized, counted, and seeded in 96 well flat-bottom plates at a final concentration of 2.5×10^3-5×10^3 cells/well (Day 0). Cells were allowed to incubate in growth media for 24 hours. Treatment with the test agents or standard agents began on Day 1 and continued for 72 hours. At the 72 hour timepoint, treatment containing media was removed. Viable cell numbers are quantified by the CellTiter-GlO® cell viability assay as described above. Results from these studies were used to calculate an IC50 value (concentration of drug that inhibits cell growth by 50 percent of control) for each compound.
Data Collection—For single agent and combination studies, data from each experiment was collected and expressed as % Cell Growth using the following calculation: Cell Growth=(ftest/fvehicle)×100
Where ftest is the fluorescence of the tested sample, and fvehicle is the fluorescence of the vehicle in which the drug is dissolved. Dose response graphs and IC50 values were generated using Prism 6 software (GraphPad) using the following equation: […]
Where X is the logarithm of concentration and Y is the response. Y starts at the Bottom and goes to Top with a sigmoid shape.
Cell Viability Assay—Cell viability was measured by the CellTiter-Glo® cell viability assay Promega (Madison, Wis.). The CellTiter-Glo® Luminescent Cell Viability Assay is a homogeneous method to determine the number of viable cells in culture based on quantitation of the ATP present, which signals the presence of metabolically active cells. Following treatment, CellTiter-Glo® is added to treatment wells and incubated at 37° C. luminescence values were measured at using a Molecular Devices Spectramax microplate reader.
as §1, with “agents” for “agents or standard agents”, “72-hour time point, treatment-containing” for “72 hour timepoint, treatment containing”, “CellTiter-Glo®” for “CellTiter-GlO®”, “above. Experiments were run with triplicate concentrations to determine growth inhibitory activity.” for “above.”
Data Collection—For single agent and combination studies, data from each experiment was collected and expressed as % Cell Growth using the following calculation: % Cell Growth=(ftest/fvehicle)×100
Where ftest is the luminescence of the tested sample, and fvehicle is the luminescence of the vehicle in which the drug is dissolved. Dose response graphs and IC50 values were generated using Prism 6 software (GraphPad).
For orientation: Cellular ATP, detected with luciferase, serves as a proxy for viable cell number.

Another series is described as follows: Permeability (PAMPA). It counts as in vitro ADME. The conditions noted are these: read-out: Permeabiltiy (PAMPA). A general note: The PAMPA barrier holds no transporters, so it reflects passive diffusion.
A further series is described as follows: S9 in vitro half-life. It counts as in vitro ADME. The conditions noted are these: S9 fraction.
The next series addresses HDAC6 (Homo sapiens (Human), UniProt Q9UBN7). Briefly: In vitro HDAC enzyme inhibition, mobility shift. It counts as biochemical. The conditions noted are these: purified enzyme. As to the method: (§2) Purified histone deacetylase enzymes 1, 3, 6, 10 were incubated with fluorescently labeled substrate and test compounds in a standardized reaction mixture in 384 well plates. Upon termination of the reaction, samples were introduced onto microfluidic chips. Samples migrate through channels in the chips and product and substrate are separated based on the difference in their charge and mass (electrophoretic mobility shift). Enzyme activity is measured by direct comparison of the fluorescence in the product and substrate peaks and the results presented in Table 4.

The next series deals with HDAC3 (Homo sapiens (Human), UniProt O15379). Briefly: In vitro HDAC enzyme inhibition, mobility shift. As to conditions: purified enzyme. It is filed as biochemical. How it is done:
as §2

The next series addresses HDAC1 (Homo sapiens (Human), UniProt Q13547). The series can be described thus: In vitro HDAC enzyme inhibition, mobility shift. As to conditions: purified enzyme. It is filed as biochemical. As to the method: as §2
A further series concerns the target HDAC10 (Homo sapiens (Human), UniProt Q969S8). Briefly: In vitro HDAC enzyme inhibition, mobility shift. It counts as biochemical. The conditions noted are these: purified enzyme. How it is done:
as §2

Series [1] is described as follows: Pharmacokinetic studies in the mouse. It is filed as in vivo. How it is done: Plasma samples were collected from healthy mice and analyzed for levels of compound ID #1, ID #2, and ID #3 and reported in Table 5. In brief, compounds were individually and accurately weighed out to produce a stock solution in Dimethyl-sulfoxide (DMSO) at a concentration of 2 mg/mL and stored at −20° C. From the stock solution, a working stock was prepared by diluting it in Methanol-Water 50:50 (v/v) at 20 μg/mL for calibration curve preparation and stored at 4° C. Standards used for quantitation and quality control samples (QC's) were prepared on the same day of sample processing using blank plasma obtained from non-treated mice. For each analyte, standards were prepared through serial dilution of the working stock at concentrations of 0.1, 0.5, 1.0, 10, 50, 100, 500 and 1000 ng/mL; QC's were prepared at intermediate concentrations of 0.75, 7.5, 75 and 750 ng/mL. Plasma samples were stored at −80° C. until ready for analysis and then placed on ice for thawing. An aliquot of 20 μL for samples, standards and QC's, were transferred into a 96-well extraction plate according to a pre-defined layout. Appropriate volume of Methanol-Formic Acid 99.9-0.1 containing internal standard (Verapamil at 25 ng/mL) was added to each well and samples were extracted under vacuum. Eluent was then transferred into a LCMS plate for analysis using a suitable column for separation and MRM detection. Concentration of analytes was calculated based on the calibration curve and analyzed for pharmacokinetic parameters by using Non-compartmental analysis (NCA) using WinNonlin Phoenix software. Parameters such as Cmax, Tmax, half-life, AUC(0-last), AUC(0-∞), volume of distribution (Vss) and clearance (Cl/F) were reported.
The analogs were tested for pharmacokinetic analysis in the mouse with doses of 1 mg/kg for intravenous (IV) route and 5 mg/kg for oral (P0) route. […] Overall exposure following IV dose also favored compound ID #1 with AUCO-∞ 1488.1 hr*ng/mL whereas compound ID #2 and ID #3 were 329.1 and 1193.7 hr*ng/mL, respectively.

pIC50: −log10 of the molar value. Where two headings read alike, the source gives them in different places. Where only a bound is given, the exact number is not on record here.

HDAC3, sequence (O15379 whole entry): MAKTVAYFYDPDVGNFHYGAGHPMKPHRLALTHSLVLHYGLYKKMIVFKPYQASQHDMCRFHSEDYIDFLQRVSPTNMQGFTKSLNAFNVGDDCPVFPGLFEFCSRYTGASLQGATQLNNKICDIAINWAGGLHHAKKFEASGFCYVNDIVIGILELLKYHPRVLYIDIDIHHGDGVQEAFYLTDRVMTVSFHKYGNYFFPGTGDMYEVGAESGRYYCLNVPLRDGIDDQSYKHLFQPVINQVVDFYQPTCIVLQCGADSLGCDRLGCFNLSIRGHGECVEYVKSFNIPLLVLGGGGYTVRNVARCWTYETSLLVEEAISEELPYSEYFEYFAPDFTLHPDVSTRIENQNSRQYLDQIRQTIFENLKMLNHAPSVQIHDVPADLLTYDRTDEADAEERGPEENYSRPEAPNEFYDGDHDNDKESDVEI
HDAC3, sequence (Q9Y618 395-489 partner): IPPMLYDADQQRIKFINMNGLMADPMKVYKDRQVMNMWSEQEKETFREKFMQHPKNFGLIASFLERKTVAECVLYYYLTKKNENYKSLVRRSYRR
HDAC10, sequence (Q969S8 whole entry): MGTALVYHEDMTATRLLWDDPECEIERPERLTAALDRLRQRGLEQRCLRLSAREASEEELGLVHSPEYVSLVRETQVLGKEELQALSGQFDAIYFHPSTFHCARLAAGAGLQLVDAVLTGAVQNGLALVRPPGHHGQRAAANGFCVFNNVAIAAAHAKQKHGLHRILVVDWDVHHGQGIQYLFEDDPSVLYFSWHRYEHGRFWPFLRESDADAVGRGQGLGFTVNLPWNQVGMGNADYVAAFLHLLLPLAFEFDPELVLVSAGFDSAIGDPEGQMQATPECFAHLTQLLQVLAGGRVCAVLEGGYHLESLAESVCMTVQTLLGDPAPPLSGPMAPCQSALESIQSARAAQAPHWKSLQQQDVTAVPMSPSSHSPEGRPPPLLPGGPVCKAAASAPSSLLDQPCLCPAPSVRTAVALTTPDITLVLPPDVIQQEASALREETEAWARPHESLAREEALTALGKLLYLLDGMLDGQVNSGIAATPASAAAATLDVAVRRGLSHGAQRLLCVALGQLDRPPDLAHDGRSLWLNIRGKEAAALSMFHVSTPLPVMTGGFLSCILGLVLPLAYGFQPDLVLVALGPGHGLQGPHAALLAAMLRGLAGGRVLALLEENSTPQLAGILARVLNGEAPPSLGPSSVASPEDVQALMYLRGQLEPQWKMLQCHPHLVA
HDAC6, sequence (Q9UBN7 whole entry): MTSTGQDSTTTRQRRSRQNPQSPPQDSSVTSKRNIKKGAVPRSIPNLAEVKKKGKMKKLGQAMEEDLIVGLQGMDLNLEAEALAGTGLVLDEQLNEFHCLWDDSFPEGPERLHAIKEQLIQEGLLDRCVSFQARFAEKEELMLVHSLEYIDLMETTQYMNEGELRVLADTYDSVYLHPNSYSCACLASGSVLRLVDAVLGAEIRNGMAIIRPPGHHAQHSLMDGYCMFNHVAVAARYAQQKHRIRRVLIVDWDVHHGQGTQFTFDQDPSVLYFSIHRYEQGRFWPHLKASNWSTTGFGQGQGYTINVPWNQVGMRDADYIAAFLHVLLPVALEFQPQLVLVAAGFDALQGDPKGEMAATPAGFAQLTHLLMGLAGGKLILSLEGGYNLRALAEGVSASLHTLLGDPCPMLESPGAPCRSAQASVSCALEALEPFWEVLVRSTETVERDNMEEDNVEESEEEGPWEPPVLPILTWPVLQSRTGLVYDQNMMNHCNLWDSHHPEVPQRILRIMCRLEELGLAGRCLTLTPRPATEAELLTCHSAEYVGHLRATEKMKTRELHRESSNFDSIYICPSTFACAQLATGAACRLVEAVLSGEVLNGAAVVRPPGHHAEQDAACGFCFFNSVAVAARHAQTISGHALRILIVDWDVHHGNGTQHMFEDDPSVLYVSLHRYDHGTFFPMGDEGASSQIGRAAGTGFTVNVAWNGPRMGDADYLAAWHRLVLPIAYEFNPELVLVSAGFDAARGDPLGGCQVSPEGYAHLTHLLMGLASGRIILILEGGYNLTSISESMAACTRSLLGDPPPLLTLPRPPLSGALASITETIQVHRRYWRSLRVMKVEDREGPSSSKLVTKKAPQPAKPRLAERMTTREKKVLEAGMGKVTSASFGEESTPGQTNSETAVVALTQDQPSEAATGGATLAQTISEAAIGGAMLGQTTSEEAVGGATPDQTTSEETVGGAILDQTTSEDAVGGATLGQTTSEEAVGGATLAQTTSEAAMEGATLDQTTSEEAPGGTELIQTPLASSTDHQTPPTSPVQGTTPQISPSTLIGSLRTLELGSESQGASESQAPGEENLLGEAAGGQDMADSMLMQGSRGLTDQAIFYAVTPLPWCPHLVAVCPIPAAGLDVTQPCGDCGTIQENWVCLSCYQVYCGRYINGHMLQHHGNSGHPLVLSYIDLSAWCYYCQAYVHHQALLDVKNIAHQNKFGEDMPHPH
HDAC1, sequence (Q13547 whole entry): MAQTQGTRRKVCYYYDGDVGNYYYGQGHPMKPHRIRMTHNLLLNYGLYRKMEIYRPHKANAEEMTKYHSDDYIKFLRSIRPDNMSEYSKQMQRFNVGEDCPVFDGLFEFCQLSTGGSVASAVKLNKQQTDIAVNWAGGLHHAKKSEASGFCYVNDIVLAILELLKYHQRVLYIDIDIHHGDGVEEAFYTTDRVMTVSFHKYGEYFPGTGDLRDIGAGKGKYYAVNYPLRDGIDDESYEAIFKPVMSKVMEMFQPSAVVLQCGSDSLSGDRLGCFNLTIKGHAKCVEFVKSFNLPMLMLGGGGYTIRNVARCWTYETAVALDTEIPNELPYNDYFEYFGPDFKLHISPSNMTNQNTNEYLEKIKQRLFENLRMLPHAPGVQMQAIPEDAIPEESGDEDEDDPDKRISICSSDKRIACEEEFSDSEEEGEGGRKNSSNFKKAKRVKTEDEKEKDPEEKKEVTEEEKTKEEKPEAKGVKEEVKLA

Take `O=C(NO)c1ccc(Nc2nc3ccccc3n2CC2(F)CCCCC2)cc1` [ID #4]: in the series with MM1.S cells, the pIC50 is 5.59.
As for `O=C(NO)c1ccc(Nc2nc3ccccc3n2CC2CCCC2)cc1` [ID #5, 4-((1-(cyclopentylmethyl)-1H-benzo[d]imidazol-2-yl)amino)-N-hydroxybenzamide], the pIC50 in the series with MM1.S cells is 5.66.
On to `O=C(NO)c1ccc(Nc2nc3ccccc3n2C2CCCCC2)cc1` [ID #2, 4-((1-cyclohexyl-1H-benzo[d]imidazol-2-yl)amino)-N-hydroxybenzamide], for which, in the series with MM1.S cells, the pIC50 is 5.70. For the same compound, the Papp in “Permeability (PAMPA)” came to 16.5 nm/s. Also, the half-life in “S9 in vitro half-life” was more than 1.5 h; in series [1] (1.0 mg/kg IV), 1.20 h; in series [1] (plasma, 1.0 mg/kg IV, read-out: Half-life (converted)) it was 1.2 h; in series [1] (plasma, 5.0 mg/kg PO, read-out: Half-life (converted)) it was 2.56 h. For the same compound, the IC50 on HDAC6 was found to be 0.015 µM; on HDAC3, 0.068 µM; on HDAC1, 0.385 µM; at HDAC10, 3.56 µM. Moreover, the “AUC0-∞” value in series [1] (1.0 mg/kg IV) was 0.32914 µg·h/mL. Also, the “AUC % Extrap” value in series [1] (1.0 mg/kg IV) amounted to 1.44%; in series [1] (5.0 mg/kg PO) it was 0.14%. Moreover, the Cl/F obs in series [1] (1.0 mg/kg IV) came to 3.04 L/h/kg. The “Rsq (>0.85)” value in series [1] (1.0 mg/kg IV) was 0.85; in series [1] (5.0 mg/kg PO) it was 1.00. Moreover, the Cmax in series [1] (5.0 mg/kg PO) was 0.4071 µg/mL; in series [1] (plasma, iv, 1 mg/kg, 1.0 mg/kg IV, read-out: Cmax), 0.508 µg/mL; in series [1] (plasma, po, 5 mg/kg, 5.0 mg/kg PO, read-out: Cmax), 0.407 µg/mL. Also, the AUC(0-t) in series [1] (plasma, 1.0 mg/kg IV) worked out at 0.324 µg·h/mL; in series [1] (plasma, 5.0 mg/kg PO), 1.28 µg·h/mL. Besides, the Tmax in series [1] (plasma, 1.0 mg/kg IV) turned out to be 0.08 h; in series [1] (plasma, 5.0 mg/kg PO), 0.5 h. Also, the Vd in series [1] (plasma, 1.0 mg/kg IV, read-out: Vss) stood at 3.5 L/kg. Moreover, in series [1] (plasma, 5.0 mg/kg PO), the CL/F was 3.91 L/h/kg. For the same compound, the bioavailability in series [1] (plasma, 5.0 mg/kg PO) stood at 77.6%. Further, in series [1] (plasma, 5.0 mg/kg PO, read-out: Vz/F obs), the Vd/F was 14.5 L/kg. In addition, the AUC(0-inf) in series [1] (plasma, iv, 1 mg/kg, 1.0 mg/kg IV, read-out: AUC0-∞) turned out to be 0.329 µg·h/mL; in series [1] (plasma, po, 5 mg/kg, 5.0 mg/kg PO, read-out: AUC0-∞) it was 1.28 µg·h/mL; in series [1] (plasma, po, 5 mg/kg, 5 mg/kg oral, read-out: AUC0-∞ (overall exposure following oral doses)) it was 1.28 µg·h/mL.
As for `O=C(NO)c1ccc(Nc2nc3ccccc3n2CC2CCC(F)(F)CC2)cc1` [ID #7], the pIC50 with MM1.S cells is 6.15.
Same read-out and setting: with `O=C(NO)c1ccc(Nc2nc3cc(F)ccc3n2CC2CCC(F)(F)CC2)cc1` [ID #8] the figure was 5.92; with `O=C(NO)c1ccc(Nc2nc3cc(F)ccc3n2CC2CCOCC2)cc1` [ID #10, 4-((5-fluoro-1-((tetrahydro-2H-pyran-4-yl)methyl)-1H-benzo[d]imidazol-2-yl)amino)-N-hydroxybenzamide], 5.54.
With `O=C(NO)c1ccc(Nc2nc3ccccc3n2CCC2CCCC2)cc1` [ID #6, 4-((1-(2-cyclopentylethyl)-1H-benzo[d]imidazol-2-yl)amino)-N-hydroxybenzamide], the pIC50 in the series on MM1.S cells is 5.96.
Regarding `O=C(NO)c1ccc(Nc2nc3ccccc3n2CC2CCOCC2)cc1` [ID #9, N-hydroxy-4-((1-((tetrahydro-2H-pyran-4-yl)methyl)-1H-benzo[d]imidazol-2-yl)amino)benzamide], the pIC50 with MM1.S cells was 5.54.
